Laboratory results: publication PMC12040169 (PLOS Biology, 2025)

test: in vitro; details: human, hela cells, % viability

| Structure (SMILES) | viability at 28.5 h, 10 µM |
| --- | --- |
| Cc1ccc(-c2noc(CSc3nnc(-c4ccncc4)n3-c3ccc(C)cc3)n2)cc1 [CBK268879] | 101% |
| CCOc1ccc(S(=O)(=O)Nc2ccc(O)c(C(=O)O)c2)cc1 [CBK299810] | 93.5% |
| CC(=O)c1cc(CN(C)C(C)c2ccncn2)cs1 (stereo not drawn) [CBK307470] | 85.5% |
| O=c1c2ccccc2[nH]c(=S)n1CCCN1CCOCC1 [CBK092141] | 88.1% |
| COc1ccc(N2CC(C(=O)N(C)CC(F)(F)F)CC2=O)cc1 (stereo not drawn) [CBK281510] | 98.2% |
| C=CCSc1nc(-c2ccc(OCCC)cc2)n[nH]1 [CBK267323] | 100% |
| CCCCNC(=O)c1ccc2c(c1)NC(=O)C(N1CCCC1)S2 (stereo not drawn) [CBK071762] | 98.4% |
| CCc1nccnc1OC [CBK089673] | 101% |
| S=C(NCCCN1CCOCC1)Nc1ccccc1Cl [CBK264599] | 100% |
| CNC(=O)CN1C(=O)CC2(C1=O)C(=O)N(C)c1ccc(OC)cc12 (stereo not drawn) [CBK075190] | 91.5% |
| Cn1c(SCC(=O)c2ccccc2)nc2ccccc2c1=O [CBK055260] | 87.6% |
| COc1ccc(OC)c(NC(=O)CSc2nnc(-c3ccco3)o2)c1 [CBK267429] | 98.3% |
| O=C(C1CCCN(CC(O)c2cccs2)C1)N1CCCCCC1 (stereo not drawn) [CBK282117] | 100% |
| Cc1ccc(NC(=O)NC(=O)C2CCN(CCc3ccc(F)cc3)CC2)cc1Cl [CBK035047] | 89.5% |
| COC(=O)c1c(NC(=S)Nc2ccc(Br)cn2)sc2c1CCC(C)C2 (stereo not drawn) [CBK266962] | 94.6% |
| Cc1cnc(C(=O)N2CCC3(CC2)CC(=O)c2cc(Cl)cc(Cl)c2O3)cn1 [CBK156502] | 89.7% |
| CS(=O)(=O)N(CC(=O)Nc1ccc(S(=O)(=O)N2CCCCCC2)cc1)c1ccc(F)cc1 [CBK266932] | 91.8% |
| NC(=O)CN1CCCN(c2cc(OCCc3c[nH]c4ccccc34)ncn2)CC1 [CBK091546] | 96.6% |
| Cc1ccc(S(=O)(=O)N(CC(=O)NC2CC3CCC2C3)c2cc(Cl)cc(Cl)c2)cc1 (stereo not drawn) [CBK263995] | 85.3% |
| CN(C)CCC1CCCCN1C(=O)[C@@H]1C[C@@H]2C=C[C@H]1C2 (stereo partly drawn) [CBK282054] | 89.2% |
| Cc1nnnn1CC(=O)Nc1nn(C)c2cccc(N3CCOCC3)c12 [CBK307335] | 97% |

| Structure (SMILES) | viability at 28.5 h, 10 µM |
| --- | --- |
| CCn1c(CN2CCN(Cc3ccc4c(c3)OCO4)CC2)n[nH]c1=S [CBK013828] | 105% |
| Cn1c(SCC(=O)N2CCN(c3ccccc3)CC2)nnc1-c1cccc([N+](=O)[O-])c1 [CBK265209] | 105% |
| O=C(N[C@@H](Cn1ccc(=O)[nH]c1=O)C(=O)O)C1CCCCC1 [CBK289651] | 85.8% |
| c1cncc(COc2nccnc2OC2CCN(CCOc3cccnc3)CC2)c1 [CBK083181] | 92.1% |
| COc1ccc2c(c1)c(C(=O)NCCn1nc(C)cc1C)c(C)n2C [CBK304615] | 78% |
| CCC(=O)NC(c1ccc(OC)c(OC)c1)c1ccc2cccnc2c1O (stereo not drawn) [CBK293926] | 78% |
| O=C(CSc1cccc2c(SCC(=O)c3ccccc3)cccc12)c1ccccc1 [CBK261255] | 87.9% |
| COc1cccc(C2CC(=O)Nc3n[nH]cc32)c1OC (stereo not drawn) [CBK287889] | 88.1% |
| O=C(C1CCCO1)N1C2CCC1CC(O)(c1ccco1)C2 (stereo not drawn) [CBK284035] | 83% |
| Cc1c(C(=O)N2CCCCC2CN2CCOCC2)[nH]c2c(F)cccc12 (stereo not drawn) [CBK306751] | 105% |
| O=C(CN1C(=O)CCC1=O)Nc1nc2ccccc2s1 [CBK287345] | 97.7% |
| CCNC(=O)N1CCN(CCCCN2C(=O)CC3(CCCC3)CC2=O)CC1 [CBK024999C] | 102% |
| O=C1COc2ccccc2C/C=C/CC2(CCCN(C(=O)CCN3CCCC3)C2)CN1 (stereo not drawn) [CBK292136] | 102% |
| O=C(NC(C(=O)N/N=C/c1ccc(Cl)cc1Cl)c1n[nH]c(=O)c2ccccc12)c1ccccc1 (stereo not drawn) [CBK261118] | 103% |
| CCOC(=O)c1c(NC(=O)CCC(=O)O)sc2c1CCCCC2 [CBK262648] | 100% |
| CCOC(=O)c1cnc2c(C)cc(C)cc2c1NCCCN(C)C [CBK266021] | 76.5% |
| CCc1ccc(CNC(=O)Cn2nnc(-c3ccc(CN4CCC(C)CC4)nc3SC)n2)cc1 [CBK156205T] | 90.3% |
| C=CCc1cc(C)cc(C)c1OCCN1CCN(CC)CC1 [CBK267392G] | 93.7% |
| COc1ccc(-c2cnc(NCCOc3ccccc3)c(C(=O)NCC3COc4ccccc4O3)c2)cc1 (stereo not drawn) [CBK076332] | 97.2% |
| CN(C)C(=O)CN1CCN(C(=O)c2ccccc2C(=O)c2ccc(F)cc2)CC1 [CBK297921] | 89.5% |
| Cc1sc(-c2ccc(Cl)nc2)nc1OC(=O)c1cccs1 [CBK067733] | 94.5% |

| Structure (SMILES) | viability at 28.5 h, 10 µM |
| --- | --- |
| CC(=O)N1CCC(C(=O)N2CCC(C(=O)NC(c3ccccn3)c3cccs3)CC2)CC1 (stereo not drawn) [CBK060118] | 95% |
| CCC(CC)NS(=O)(=O)c1cccc(C(=O)O)c1 [CBK287225] | 88.3% |
| Cc1c(Cc2ccccc2)c(-n2ccnc2C)n2c(nc3ccccc32)c1C#N [CBK263144] | 92.4% |
| O=C(Nc1ccccc1C(=O)NCCCc1nc2ccccc2[nH]1)c1cccs1 [CBK296641] | 107% |
| CS(=O)(=O)Nc1cccc(C(=O)O)c1 [CBK160404] | 96.3% |
| C[C@H]1CNCCN1c1nccnc1Cl [CBK047524F] | 88% |
| CC(CNC(=O)COc1ccc2ccccc2c1Br)CN(C)C (stereo not drawn) [CBK267369] | 94.9% |
| CCCCn1c(CSc2ncccc2C(=O)O)nc2cc(S(=O)(=O)N3CCOCC3)ccc21 [CBK297558] | 84.1% |
| CCN(CC)C(=O)CN1CCN(c2nccnc2OCC2COc3ccccc3O2)CC1 (stereo not drawn) [CBK082803T] | 96.5% |
| COc1ccccc1OCCSc1nnnn1C1CCCCC1 [CBK141884] | 96.6% |
| FC(F)(F)c1ccnc(Sc2ccncc2)c1 [CBK093793] | 92.3% |
| COc1ccccc1NS(=O)(=O)c1ccc(N2C[C@@H](C)N[C@@H](C)C2)c2ccccc12 [CBK200012C] | 85.3% |
| N/C(=N/OC(=O)c1ccc2nsnc2c1)c1ncon1 [CBK263847] | 105% |
| CC(C)(C)OCc1[nH]nc(O)c1Cc1c(Cl)cccc1Cl [CBK089569] | 106% |
| COC(=O)CCc1ccc(S(=O)(=O)N2CCCN(Cc3c[nH]c4ccc(Cl)cc34)CC2)cc1 [CBK063000] | 99.2% |
| CS(=O)(=O)c1ccc(-c2c[nH]c([C@@H]3COCCN3Cc3c[nH]c4ccccc34)n2)cc1 [CBK289321] | 92% |
| O=C(CSc1ncn(-c2ccccc2)n1)c1ccc(Br)cc1 [CBK027014] | 91.6% |
| COc1ccc(S(=O)(=O)Nc2c(C(=O)O)sc3ncccc23)cc1OC [CBK049979] | 87.3% |
| CC(=O)NCc1ccc(-c2ccc(C(=O)NC3(c4ccccc4)CCCC3)c(C)n2)cc1 [CBK285891] | 96% |
| COc1ccc([C@@]23CC[C@@H](NC(=O)Nc4ccc(OC)c(C(F)(F)F)c4)C[C@@H]2N(C)CC3)cc1OC [CBK051268T] | 107% |

same assay, conditions: human, hela cells, % viability, bulk resorufin, single well

| Structure (SMILES) | viability at 28.5 h, 10 µM |
| --- | --- |
| CCOC(=O)C1(c2ccccc2)CCN(C(=O)CC2NC(=O)NC2=O)CC1 (stereo not drawn) [CBK132196] | 93.7% |
